Assay results: ChEMBL document CHEMBL4619793, “Pyrazolo[4,3-d]pyrimidine Derivatives as a Novel Hypoxia-Inducible Factor Prolyl Hydroxylase Domain Inhibitor for the Treatment of Anemia” (ACS Med Chem Lett, 2020)
≈ marks a conversion by molar mass, not a printed value. Values belong to the compound of their own block, whether it stands above or below them. Calls of active or inactive are those of the source. The rule behind the calls is not given here.

Legend:
[1] = Solubility of the compound in buffer at pH 6.5; assay type: physicochemical
[2] = AUC (0 to infinity) in Sprague-Dawley rat at 1 mg/kg, iv; assay type: ADME, organism-based; parameters: dose 1 mg/kg, time infinity, route intravenous; details: in vivo
[3] = Total clearance in Sprague-Dawley rat at 1 mg/kg, iv; assay type: ADME, organism-based; details: in vivo
[4] = Oral bioavailability in Sprague-Dawley rat at 1 mg/kg; assay type: ADME, organism-based; details: in vivo
[5] = system: Rattus norvegicus; test: Antianemic activity in kidney excised-induced renal anemia Sprague-Dawley rat model assessed as improvement in blood hemoglobin level at 2 mg/kg, po administered once daily for 4 weeks measured 1 week post initial dose; assay type: functional, organism-based
[6] = Cmax in Sprague-Dawley rat at 1 mg/kg, po; assay type: ADME, organism-based; parameters: dose 1 mg/kg, route oral; details: in vivo
[7] = Cmax in Sprague-Dawley rat at 1 mg/kg, iv; assay type: ADME, organism-based; parameters: dose 1 mg/kg, route intravenous; details: in vivo
[8] = AUC (0 to infinity) in Sprague-Dawley rat at 1 mg/kg, po; assay type: ADME, organism-based; parameters: dose 1 mg/kg, time infinity, route oral; details: in vivo
[9] = Volume of distribution at steady state in Sprague-Dawley rat at 1 mg/kg, iv; assay type: ADME, organism-based; details: in vivo, read-out: Vdss
[10] = system: Rattus norvegicus; test: Antianemic activity in kidney excised-induced renal anemia Sprague-Dawley rat model assessed as improvement in blood hemoglobin level at 1 mg/kg, po administered once daily for 4 weeks measured 2 week post initial dose; assay type: functional, organism-based
[11] = target: Egl nine homolog 1 (Rattus norvegicus) (UniProt P59722); test: In vivo inhibition of HIF-PHD2 in Sprague-Dawley rat assessed as increase in serum erythropoietin level at 10 mg/kg, po administered as single dose measured after 8 hrs by immunoassay; assay type: functional, organism-based
[12] = system: Mus musculus; test: In vivo inhibition of HIF-PHD2 in ICR mouse assessed as serum erythropoietin level at 100 mg/kg, po administered as single dose measured after 6 hrs by immunoassay (reference value: 146 pg/ml); assay type: functional
[13] = AUC (0 to infinity) in Sprague-Dawley rat at 10 mg/kg, po; assay type: ADME, organism-based; parameters: dose 10 mg/kg, time infinity, route oral; details: in vivo
[14] = system: Mus musculus; test: In vivo inhibition of HIF-PHD2 in ICR mouse assessed as serum erythropoietin level at 10 mg/kg, po administered as single dose measured after 6 hrs by immunoassay (reference value: 125 pg/ml); assay type: functional
[15] = Oral bioavailability in Sprague-Dawley rat at 10 mg/kg; assay type: ADME, organism-based; details: in vivo
[16] = Cmax in Sprague-Dawley rat at 10 mg/kg, po; assay type: ADME, organism-based; parameters: dose 10 mg/kg, route oral; details: in vivo
[17] = Cmax in Sprague-Dawley rat at 0.5 mg/kg, iv; assay type: ADME, organism-based; parameters: dose 0.5 mg/kg, route intravenous; details: in vivo
[18] = Total clearance in Sprague-Dawley rat at 0.5 mg/kg, iv; assay type: ADME, organism-based; details: in vivo
[19] = system: Mus musculus; test: In vivo inhibition of HIF-PHD2 in ICR mouse assessed as serum erythropoietin level at 30 mg/kg, po administered as single dose measured after 6 hrs by immunoassay (reference value: 125 pg/ml); assay type: functional
[20] = AUC (0 to infinity) in Sprague-Dawley rat at 0.5 mg/kg, iv; assay type: ADME, organism-based; parameters: dose 0.5 mg/kg, route intravenous, time infinity; details: in vivo
[21] = Volume of distribution at steady state in Sprague-Dawley rat at 0.5 mg/kg, iv; assay type: ADME, organism-based; details: in vivo, read-out: Vdss

Chain of Egl nine homolog 1 (Rattus norvegicus) (P59722 whole entry): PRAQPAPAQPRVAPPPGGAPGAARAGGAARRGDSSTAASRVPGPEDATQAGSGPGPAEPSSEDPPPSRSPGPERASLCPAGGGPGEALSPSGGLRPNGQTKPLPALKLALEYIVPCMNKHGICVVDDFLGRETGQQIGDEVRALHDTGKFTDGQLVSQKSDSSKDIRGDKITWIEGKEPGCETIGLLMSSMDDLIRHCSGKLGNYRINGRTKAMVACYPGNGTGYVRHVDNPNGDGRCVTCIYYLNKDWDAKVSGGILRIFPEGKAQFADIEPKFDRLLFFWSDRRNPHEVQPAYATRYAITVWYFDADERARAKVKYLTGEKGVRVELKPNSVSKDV

solubility [1]: 49 µg/mL (≈ 109 µM)
SMILES: O=C(O)c1cnn(-c2nc3cnn(Cc4ccc(-c5ccc(F)cc5)c(F)c4)c3c(=O)[nH]2)c1

solubility [1]: 88 µg/mL (≈ 217 µM)
SMILES: O=C(O)c1cnn(-c2nc3cnn(Cc4ccc(Cl)c(Cl)c4)c3c(=O)[nH]2)c1

The remaining lines, values behind:

SMILES: C[C@@H](c1cc(Cl)ccc1Cl)n1ncc2nc(-n3cc(C(=O)O)cn3)[nH]c(=O)c21
solubility [1]: > 1000 µg/mL
AUC(0-inf) [2]: 30400 ng·h/mL
clearance [3]: 0.567 mL/min/kg
bioavailability [4]: 77%
Activity [5]: Active
Cmax [6]: 1840 ng/mL
Cmax [7]: 12400 ng/mL
AUC(0-inf) [8]: 23500 ng·h/mL
Vd [9]: 0.249 L/kg
Activity [10]: Active
inhibition [11]: Active

SMILES: O=C(O)c1cnn(-c2nc3cn(Cc4ccc(-c5ccccc5)cc4)nc3c(=O)[nH]2)c1
Activity [12]: 450 pg/mL

SMILES: O=C(O)c1cnn(-c2nc3cnn(Cc4ccc(-c5ccccc5)cc4)c3c(=O)[nH]2)c1
AUC(0-inf) [13]: 17800 ng·h/mL
solubility [1]: 9.5 µg/mL (≈ 23 µM)
Activity [14]: 63000 pg/mL
bioavailability [15]: 16%
Cmax [16]: 2710 ng/mL
Cmax [17]: 4910 ng/mL
clearance [18]: 1.52 mL/min/kg
Activity [19]: 89000 pg/mL
AUC(0-inf) [20]: 5560 ng·h/mL
Vd [21]: 0.197 L/kg

SMILES: C[C@@H](c1ccc(Cl)c(Cl)c1)n1ncc2nc(-n3cc(C(=O)O)cn3)[nH]c(=O)c21
solubility [1]: 75 µg/mL (≈ 179 µM)
